According to ChEMBL document CHEMBL6109137, “Design, Synthesis, Evaluation, and SAR of 5-Phenylisoindoline Derivatives, a Potent Class of Small-Molecule Inhibitors Targeting the Programmed Cell Death-1/Programmed Cell Death-Ligand 1 (PD-1/PD-L1) Interaction” (J Med Chem, 2025):
Calls of active or inactive are those of the source. No cut-off for these calls is given here.

Columns and labels:
[1] = Binding affinity to human PD-L1 assessed as dissociation constant by SPR analysis
[2] = molecular target: Programmed cell death protein 1/Programmed cell death 1 ligand 1 (Homo sapiens) (UniProt Q15116+Q9NZQ7); test: Inhibition of PD-1/PD-L1 (unknown origin) interaction in human PBMC cells assessed as increase in IFN-gamma level at 100 nM pretreated with anti-CD3/CD28 and PD-L1 followed by compound addition measured after 72 hrs by ELISA; type: cell-based
[3] = Cytotoxicity against human HaCaT cells measured after 48 hrs by MTT assay; type: toxicity, cell-based
[4] = Cytotoxicity against HEK293T cells measured after 48 hrs by MTT assay; type: toxicity, cell-based, HEK-293T; conditions: human
MC-38 [5] = test: Inhibition of PD-L1-induced cell migration in mouse MC38 cells at 5 uM measured up to 24 hrs by scratch assay; type: functional, cell-based
[6] = Clearance in Sprague-Dawley rat at 1 mg/kg, iv measured for 24 hrs by LC-MS/MS analysis; type: ADME, organism-based; conditions: in vivo
[7] = Half life in Sprague-Dawley rat at 10 mg/kg, ip measured for 24 hrs by LC-MS/MS analysis; type: ADME, organism-based; conditions: in vivo
[8] = Cmax in Sprague-Dawley rat at 10 mg/kg, ip measured for 24 hrs by LC-MS/MS analysis; type: ADME, organism-based; conditions: in vivo
[9] = AUC (0 to infinity) in Sprague-Dawley rat at 10 mg/kg, ip measured for 24 hrs by LC-MS/MS analysis; type: ADME, organism-based; conditions: in vivo
[10] = AUC (0 to 24 hrs) in Sprague-Dawley rat at 20 mg/kg, po measured for 24 hrs by LC-MS/MS analysis; type: ADME, organism-based; conditions: in vivo
MC-38 [11] = test: Antitumor activity against mouse MC38 cells implanted in C57BL/6J mouse administered intraperitoneally once a day for 13 days; type: functional, cell-based; conditions: dose 5-20 mg/kg, route ip, time 13.0 day
MC-38 [12] = test: Antitumor activity against mouse MC38 cells implanted in C57BL/6J mouse at 5 to 20 mg/kg, ip qd; type: functional, organism-based; conditions: dose 5-20 mg/kg, time 13.0 day
[13] = Toxicity in C57BL/6J mouse implanted with mouse MC38 cells assessed as change in liver index at 5 to 20 mg/kg, ip qd for 13 days; type: organism-based; conditions: in vivo, 312 h, dose 5-20 mg/kg, time 13 day
[14] = Toxicity in C57BL/6J mouse implanted with mouse MC38 cells assessed as injury in lung at 5 to 20 mg/kg, ip qd for 13 days by H and E staining based analysis; type: organism-based; conditions: in vivo, 312 h, dose 5-20 mg/kg, time 13 day
[15] = Toxicity in C57BL/6J mouse implanted with mouse MC38 cells assessed as change in serum ALT level at 5 to 20 mg/kg, ip qd for 13 days; type: organism-based; conditions: in vivo, 312 h, dose 5-20 mg/kg, time 13 day
MC-38 [16] = test: Antitumor activity against mouse MC38 cells implanted in C57BL/6J mouse assessed as increase in ratio of CD8+/CD4+ T cells at 20 mg/kg, ip qd for 13 days by flow cytometry; type: functional, organism-based; conditions: time 13.0 day
MC-38 [17] = test: Antitumor activity against mouse MC38 cells implanted in C57BL/6J mouse assessed as increase in infiltration of CD8+ T cells at 5 to 20 mg/kg, ip qd for 13 days by IHC analysis; type: functional, organism-based; conditions: dose 5-20 mg/kg, time 13.0 day
MC-38 [18] = test: Antitumor activity against mouse MC38 cells implanted in C57BL/6J mouse assessed as increase in granzyme B level at 5 to 20 mg/kg, ip qd for 13 days by IHC analysis; type: functional, organism-based; conditions: dose 5-20 mg/kg, time 13.0 day
MC-38 [19] = test: Inhibition of cell proliferation of mouse MC38 cells implanted in C57BL/6J mouse assessed as reduction in Ki67 level at 5 to 20 mg/kg, ip qd for 13 days by IHC analysis; type: functional, organism-based; conditions: dose 5-20 mg/kg, time 13.0 day
Mus musculus [20] = test: Restoration of immune function in C57BL/6J mouse implanted with mouse MC38 cells assessed as increase in serum IL-2 level administered intraperitoneally once daily for 13 days by ELISA; type: functional, organism-based; conditions: dose 5-20 mg/kg, route ip, time 13.0 day
Mus musculus [21] = test: Restoration of immune function in C57BL/6J mouse implanted with mouse MC38 cells assessed as increase in serum IFN-gamma level administered intraperitoneally once daily for 13 days by ELISA; type: functional, organism-based; conditions: dose 5-20 mg/kg, route ip, time 13.0 day
MC-38 [22] = test: Antitumor activity against mouse MC38 cells implanted in C57BL/6J mouse at 160 mg/kg, IG qd for 7 days relative to control; type: functional; conditions: MC-38, po, 168 h, time 7 day, read-out: TGI
MC-38 [23] = test: Antitumor activity against mouse MC38 cells implanted in C57BL/6J mouse assessed as tumor growth inhibition at 160 mg/kg, IG qd; type: functional, organism-based; conditions: time 7.0 day
[24] = Toxicity in C57BL/6J mouse implanted with mouse MC38 cells assessed as change in excised body weight at 40 to 160 mg/kg, IG qd for 7 days; type: organism-based; conditions: in vivo, po, 168 h, dose 40-160 mg/kg, time 7 day
[25] = Toxicity in C57BL/6J mouse implanted with mouse MC38 cells assessed as heart weight ratio at 40 to 160 mg/kg, IG qd for 7 days; type: organism-based; conditions: in vivo, po, 168 h, dose 40-160 mg/kg, time 7 day
[26] = Toxicity in C57BL/6J mouse implanted with mouse MC38 cells assessed as liver weight ratio at 40 to 160 mg/kg, IG qd for 7 days; type: organism-based; conditions: in vivo, po, 168 h, dose 40-160 mg/kg, time 7 day
[27] = Toxicity in C57BL/6J mouse implanted with mouse MC38 cells assessed as kidney weight ratio at 40 to 160 mg/kg, IG qd for 7 days; type: organism-based; conditions: in vivo, po, 168 h, dose 40-160 mg/kg, time 7 day
[28] = Toxicity in C57BL/6J mouse implanted with mouse MC38 cells assessed as brain weight ratio at 40 to 160 mg/kg, IG qd for 7 days; type: organism-based; conditions: in vivo, po, 168 h, dose 40-160 mg/kg, time 7 day
[29] = Toxicity in C57BL/6J mouse implanted with mouse MC38 cells assessed as change in ALT level at 40 to 160 mg/kg, IG qd for 7 days; type: organism-based; conditions: in vivo, po, 168 h, dose 40-160 mg/kg, time 7 day
[30] = Toxicity in C57BL/6J mouse implanted with mouse MC38 cells assessed as change in ureas level at 40 to 160 mg/kg, IG qd for 7 days; type: organism-based; conditions: in vivo, po, 168 h, dose 40-160 mg/kg, time 7 day
[31] = Toxicity in C57BL/6J mouse implanted with mouse MC38 cells assessed as change in PCT count at 40 to 160 mg/kg, IG qd for 7 days; type: organism-based; conditions: in vivo, po, 168 h, dose 40-160 mg/kg, time 7 day
[32] = Toxicity in C57BL/6J mouse implanted with mouse MC38 cells assessed as change in monocytes count at 40 to 160 mg/kg, IG qd for 7 days; type: organism-based; conditions: in vivo, po, 168 h, dose 40-160 mg/kg, time 7 day
[33] = Toxicity in C57BL/6J mouse implanted with mouse MC38 cells assessed as change in neutrophils count at 40 to 160 mg/kg, IG qd for 7 days; type: organism-based; conditions: in vivo, po, 168 h, dose 40-160 mg/kg, time 7 day
[34] = Toxicity in C57BL/6J mouse implanted with mouse MC38 cells assessed as change in PDW count at 40 to 160 mg/kg, IG qd for 7 days; type: organism-based; conditions: in vivo, po, 168 h, dose 40-160 mg/kg, time 7 day
[35] = Toxicity in C57BL/6J mouse implanted with mouse MC38 cells assessed as change in MCH count at 40 to 160 mg/kg, IG qd for 7 days; type: organism-based; conditions: in vivo, po, 168 h, dose 40-160 mg/kg, time 7 day
[36] = Toxicity in C57BL/6J mouse implanted with mouse MC38 cells assessed as change in MCV count at 40 to 160 mg/kg, IG qd for 7 days; type: organism-based; conditions: in vivo, po, 168 h, dose 40-160 mg/kg, time 7 day
[37] = Toxicity in C57BL/6J mouse implanted with mouse MC38 cells assessed as change in MCHC count at 40 to 160 mg/kg, IG qd for 7 days; type: organism-based; conditions: in vivo, po, 168 h, dose 40-160 mg/kg, time 7 day

C[C@H](N)C(=O)N1Cc2ccc(-c3cccc(-c4ccc5c(c4)OCCO5)c3Cl)cc2C1.Cl
Kd [1]: 0.23 µM | inhibition [2]: Active | IC50 at 48 h [3]: > 100 µM | IC50 at 48 h [4]: > 10 µM | inhibition (MC-38 [5]): Active | clearance [6]: 87.7 mL/min/kg | half-life [7]: 4.02 h | Cmax [8]: 412 ng/mL | AUC(0-inf) [9]: 1620 ng·h/mL | AUC(0-t) at 24 h [10]: 467 ng·h/mL | Activity (MC-38 [11]): Dose-dependent-effect | Activity (MC-38 [12]): Time-dependent-effect | Activity [13]: Non-toxic | Activity [14]: Non-toxic | Activity [15]: Non-toxic | Activity (MC-38 [16]): Active | Activity (MC-38 [17]): Active | Activity (MC-38 [18]): Active | inhibition (MC-38 [19]): Active | Activity (Mus musculus [20]): Dose-dependent-effect | Activity (Mus musculus [21]): Dose-dependent-effect | inhibition in vivo at 160 mg/kg (MC-38 [22]): 64.4% | inhibition (MC-38 [23]): Time-dependent-effect | Activity [24]: Non-toxic | Activity [25]: Non-toxic | Activity [26]: Non-toxic | Activity [27]: Non-toxic | Activity [28]: Non-toxic | Activity [29]: Non-toxic | Activity [30]: Non-toxic | Activity [31]: Non-toxic | Activity [32]: Non-toxic | Activity [33]: Non-toxic | Activity [34]: Non-toxic | Activity [35]: Non-toxic | Activity [36]: Non-toxic | Activity [37]: Non-toxic
